What was measured:
EAE in C57BL/6 mice = experiment: EAE mouse model (behavioral score, splenic CD4+ T cells, spinal cord histology); format: in vivo
Description: Thus, the inventors used the experimental autoimmune encephalomyelitis (EAE) mouse model to study the impact of NAD^+, in vivo, on IL-10, Th1, Th17 and Treg cells in vivo. […] Next, the mechanisms by which NAD^+ protected from EAE in vivo were investigated, in particular its impact on IL-10 cytokine, Th1, Th17 and Tregs. Spleens were isolated from mice treated with NAD^+ or with a placebo solution 15 days after MOG immunization and CD4^+ T cell cytokine expression profile was analyzed by flow cytometry.
To assess the clinical efficacy of NAD^+ as a potential robust therapeutic, a group of mice that developed severe clinical symptoms of EAE (e.g., bilateral hindlimb paresis) was subjected to a daily NAD^+ treatment 15 days after MOG immunization.
Thus, the mechanism of how NAD^− treatment was able to reverse EAE progression was investigated. A previous study reported that nicotinamide (Nam) an NAD biosynthesis precursor can protect from myelin degradation and axon degeneration^43. The results described herein indicate that NAD^+ administered after the disease onset was able to reverse the progression of EAE. Thus, the inventors assessed whether NAD^+ was able to reverse the clinical symptoms of EAE by protecting axon from degeneration and whether NAD^+ had the capacity to promote myelin regeneration. […] Moreover, demyelination and axon loss were assessed with antibodies to myelin basic protein (MBP/SMI-9) and neurofilament (NF200), respectively, in all three groups (FIG. 5A-5F). Consistent with H&E and luxol blue findings, a significant reduction in both MBP staining depicting demyelination and axon loss evidenced by reduced NF 200 staining was very prominent in the group of mice treated with a placebo solution (FIG. 5A and 5D) when compared to the daily NAD^| treated group (FIG. 5B and 5E) and with mice treated with NAD+ after develop hindlimb paralysis (15 days after MOG immunization) (FIG. 5C and 5F).
EAE was induced in 10-week-old C57BL/6 mice using Hooke Labs EAE induction kit (EK-2110) according to manufacturer's instructions. […] For NAD^+ treatment mice received a daily intraperitoneal injection (60 mg in 100 μl in PBS) or a placebo solution (100 μl of PBS) at the same day than MOG immunization. Mice were sacrificed at day 18 and single cell suspension was obtained from spleens for flow cytometry analysis. To test whether NAD^+ was able to reverse the development of EAE, another group of mice was treated daily (for a period of 10 days) with NAD^+ (60 mg/mouse) or a placebo solution 15 days after MOG immunization when mice were scored 3 with a bilateral hindlimb paresis. EAE disease progression was monitored. For Tph-1 or CA3 inhibition, mice received daily intraperitoneal injections (simultaneous to NAD^−) of p-Chlorophenylalanine (1 ml of a 10 mM solution stock, catalog number 0938, Tocris Bioscience) or N-[[[(1S)-1-Carboxy-3-methylbutyl]amino]carbonyl]-L-glutamic acid (100 μl of a 100 mM solution stock, ZJ 43 catalog number 2675,Tocris Bioscience), respectively.

[1] = system: Human peripheral blood CD4+ T cells; experiment: Human CD4+ T cells under Th1 polarizing conditions (flow cytometry); format: cell-based; conditions: increasing NAD+
Description: The inventors next investigated whether NAD^− regulates CD4^+ T cell differentiation in Th1 polarizing conditions. Isolated naïve CD4^+ T cells were cultured with anti-CD3/CD28 antibodies in presence of recombinant IL-12 and IL-2 cytokines and anti-IL4 antibody. […] In contrast to Th0 polarizing conditions, NAD^+ induced a robust IL-10 secretion (>3500 pg/ml) in Th1 cytokine environment (FIG. 1A). Furthermore, pro-inflammatory cytokines such as TNF-α and IL-6 were reduced by NAD^+ (FIG. 7C). […] Furthermore, the study tested whether NAD^+ promoted the shift of human CD4^+ T helper cells in Th1 polarizing conditions towards IL-10 cytokine production. Human peripheral blood CD4^| T cells were activated with anti-CD3/CD28 antibodies under Th1 polarizing conditions (recombinant IL-12 and IL-2 cytokines and anti-IL4 antibody) with increasing concentrations of NAD+. After 96 hours of culture, CD4^+IL-10^+IFNγ^+ cell frequency was assessed by flow cytometry analysis. […]
All recombinant cytokines and antibodies were purchased from EBIOSCIENCE except recombinant TGF-β cytokine (R&D SYSTEMS, Minneapolis, Minn.). After 96 hrs of culture supernatants and cells were collected and analyzed by ELISA and flow cytometry, respectively.

[2] = MOG-immunized mice, daily i.p. NAD+ from day of immunization
[3] = daily NAD+ and NAD+ from 15 days after MOG immunization
[4] = spleen, EAE mice, daily NAD+ vs placebo, flow cytometry

NC(=O)c1ccc[n+]([C@@H]2O[C@H](COP(=O)([O-])OP(=O)(O)OC[C@H]3O[C@@H](n4cnc5c(N)ncnc54)[C@H](O)[C@@H]3O)[C@@H](O)[C@H]2O)c1 [NAD+, nicotinamide adenine dinucleotide]
spinal cord inflammatory infiltrate, myelin loss and axonal injury (LFB and H&E stainings) (EAE in C57BL/6 mice; EAE mice treated daily with NAD+): remained free of inflammatory infiltrate, myelin loss, and axonal injury | EAE (behavioral score) (EAE in C57BL/6 mice; [2]): protected against EAE | paralysis (EAE in C57BL/6 mice; [2]): no sign of paralysis | spinal cord inflammatory infiltrate, myelin loss and axonal injury (LFB and H&E stainings) (EAE in C57BL/6 mice; NAD+ started 15 days after MOG immunization (after hindlimb paralysis)): did not show inflammatory infiltrate, myelin loss, and axonal injury | myelination positive area (MBP), spinal cord (EAE in C57BL/6 mice; [3]): significant protection and recovery | neurofilament positive area (NF200), spinal cord (EAE in C57BL/6 mice; [3]): significant protection and recovery | time of treatment until bilateral hindlimb paresis abolished (EAE in C57BL/6 mice; daily NAD+ started 15 days after MOG immunization): ≤ 10 days | progression of EAE (EAE in C57BL/6 mice; daily NAD+ started 15 days after MOG immunization (bilateral hindlimb paresis), vs placebo): reversed the progression of the disease | development of EAE (EAE in C57BL/6 mice; daily NAD+, after 25 days): did not develop EAE | systemic IL-10 cytokine production by CD4+IFNγ+ cells (EAE in C57BL/6 mice; spleen, EAE mice, daily NAD+ vs control group, flow cytometry): dramatically enhanced | IFNγ production by CD4+ T cells (EAE in C57BL/6 mice; [4]): promoted | Th17 response (EAE in C57BL/6 mice; [4]): promoted a robust Th17 response | number of CD4+CD25+Foxp3+ cells (EAE in C57BL/6 mice; [4]): reduced | IL-17A [1]: moderate increase | IL-10 cytokine production by CD4+IFN-γ producing cells ([1]; flow cytometry): robust IL-10 cytokine production

Reference: patent US20160067272A1, “METHODS FOR TREATING IMMUNE DISEASES” (priority 2013, published 2016)
